Measurements as given in patent publication US4882349A, “Pyrrolacetic amides having antiinflammatory activity” (priority 1982, dated 1989).

Legend:
[1] = tested on: phenyl-p-quinone-induced writhing (abdominal contractions); test: phenylquinone-induced writhing test (analgesic activity), compound given 30 min before phenyl-p-quinone; format: in vivo, male Wistar rats
Outline: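 Male Wistar rats (110±5 g), fasted 14 h, received test compounds orally or parenterally in 0.5% CMC/saline vehicle 30 min before 2 ml of 0.36% phenyl-p-quinone in 5% ethanol.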

[2] = tested on: cough provoked by mechanical stimulation of the tracheal bifurcation mucosa; test: antitussive activity, mechanically provoked coughing; format: in vivo, albino Guinea-pigs; settings: 1 h after administration
Procedure: The antitussive effect on albino Guinea-pigs weighing 300 g was evaluated using the method described by Y. Kase (Selected Pharmacological Testing Methods, p.363, Marcel Dekker Inc., New York, 1968). Each dose was tested in a group of animals with a Y cannula inserted into the trachea. In order to provoke coughing, the mucosa of the tracheal bifurcation was mechanically stimulated by insertion of a wild boar's hair through an opening in the cannula, while the other opening was connected to a kymograph to plot the amplitude and/or frequency. The reduction in the number of coughs was evaluated at one hour after administration of the compounds under examination by following the plottings for twenty minutes and comparing the response of the control animals.

[3] = tested on: mucus secreted by the respiratory airway; test: antisecretory activity, respiratory mucus secretion; format: in vivo, albino male New Zealand rabbits; settings: vs control group
Procedure: The experiment was carried out in accordance with the method described by Y. Kase (Folia Pharmacol. Jap. 73: 605, 1977) for the purpose of investigating whether or not the compounds under examination determine changes in the volume of the mucus secreted by the respiratory airway. Groups of four albino male New Zealand rabbits (mean weight: 2.5 kg) were used for testing each dose per single group. The animals were anesthetized with urethane (1.1 g/ks b.w.) via the intraperitoneal route and a Y cannula was inserted into the trachea. In order to stimulate mucous secretion a humidifier was connected to the cannula permitting the animals to spontaneously breathe air with 100% humidity at a constant temperature of 39° C. The secreted mucus was collected through another opening in the cannula and measured at three and six hours after administration of the compounds under examination or of the vehicle alone administered in the order of […] (controls). Calculation of the increase or decrease in mucous secretion was based upon the percentage differences between the groups treated with the compounds under examination and the control group. Table VII gives the percentage differences in mucous secretion, and the tested compounds with relative doses and routes of administration.

[4] = tested on: carrageenin-induced oedema; test: carrageenin-induced oedema test (anti-inflammatory activity); format: in vivo, albino male Wistar rats

Q: `CCOC(=O)c1ccc(NC(=O)Cc2ccc(C(=O)c3ccc(C)cc3)n2C)cc1` [Compound 1-h, 1-methyl-5-p-toluoylpyrrole-2-N-(4-carboxyethyl-phenyl) acetamide] was tested. Which “% Protection” value ([1]; 5 mg/Kg i.p.) did it give?
A: The value was 18.0%.

Q: What about the “% Protection” value ([1]; 5 mg/Kg per os) of the same compound?
A: Its value is 16.2%.

Q: What about the “% Protection” value ([1]; 10 mg/Kg i.p.) of the same compound?
A: The value was 44.0%.

Q: What about the “% Protection” value ([1]; 10 mg/Kg per os) of the same compound?
A: The value was 37.9%.

Q: What about the “% Protection” value ([1]; 20 mg/Kg i.p.) of the same compound?
A: The value was 79.0%.

Q: And the “% Protection” value ([1]; 20 mg/Kg per os)?
A: The value was 70.1%.

Q: And the “% inhibition, cough amplitude” value ([2]; 50 mg/Kg i.p.)?
A: Its value is 20%.

Q: What about the “% inhibition, cough frequency” value ([2]; 50 mg/Kg i.p.) of the same compound?
A: The value was 18%.

Q: And the “% inhibition, cough amplitude” value ([2]; 50 mg/Kg per os)?
A: The value was 13%.

Q: And the “% inhibition, cough frequency” value ([2]; 50 mg/Kg per os)?
A: The value was 10%.

Q: And the “% inhibition, cough amplitude” value ([2]; 75 mg/Kg i.p.)?
A: The value was 29%.

Q: And the “% inhibition, cough frequency” value ([2]; 75 mg/Kg i.p.)?
A: Its value is 35%.

Q: What about the “% inhibition, cough amplitude” value ([2]; 75 mg/Kg per os) of the same compound?
A: Its value is 22%.

Q: What about the “% inhibition, cough frequency” value ([2]; 75 mg/Kg per os) of the same compound?
A: The value was 18%.

Q: What about the “% inhibition, cough amplitude” value ([2]; 100 mg/Kg i.p.) of the same compound?
A: The value was 45%.

Q: What about the “% inhibition, cough frequency” value ([2]; 100 mg/Kg i.p.) of the same compound?
A: The value was 53%.

Q: And the “% inhibition, cough amplitude” value ([2]; 100 mg/Kg per os)?
A: The value was 40%.

Q: And the “% inhibition, cough frequency” value ([2]; 100 mg/Kg per os)?
A: The value was 50%.

Q: What about the “% difference in mucus secretion” value ([3]; 50 mg/Kg i.p., 3 h) of the same compound?
A: The value was -8%.

Q: What about the “% difference in mucus secretion” value ([3]; 50 mg/Kg i.p., 6 h) of the same compound?
A: Its value is -3%.

Q: And the “% difference in mucus secretion” value ([3]; 50 mg/Kg per os, 3 h)?
A: Its value is -5%.

Q: And the “% difference in mucus secretion” value ([3]; 50 mg/Kg per os, 6 h)?
A: Its value is 0.0%.

Q: What about the “% difference in mucus secretion” value ([3]; 75 mg/Kg i.p., 3 h) of the same compound?
A: The value was -26%.

Q: What about the “% difference in mucus secretion” value ([3]; 75 mg/Kg i.p., 6 h) of the same compound?
A: The value was -20%.

Q: And the “% difference in mucus secretion” value ([3]; 75 mg/Kg per os, 3 h)?
A: Its value is -19%.

Q: And the “% difference in mucus secretion” value ([3]; 75 mg/Kg per os, 6 h)?
A: Its value is -16%.

Q: And the “% difference in mucus secretion” value ([3]; 100 mg/Kg i.p., 3 h)?
A: Its value is -41%.

Q: What about the “% difference in mucus secretion” value ([3]; 100 mg/Kg i.p., 6 h) of the same compound?
A: The value was -38%.

Q: And the “% difference in mucus secretion” value ([3]; 100 mg/Kg per os, 3 h)?
A: Its value is -39%.

Q: And the “% difference in mucus secretion” value ([3]; 100 mg/Kg per os, 6 h)?
A: The value was -32%.

Q: What about the oedema % inhibition ([4]; 25 mg/Kg per os, 2 h) of the same compound?
A: The oedema % inhibition was 28.9%.

Q: What about the oedema % inhibition ([4]; 25 mg/Kg per os, 4 h) of the same compound?
A: Its oedema % inhibition is 30.1%.

Q: And the oedema % inhibition ([4]; 25 mg/Kg per os, 6 h)?
A: Its oedema % inhibition is 29.0%.

Q: And the oedema % inhibition ([4]; 25 mg/Kg per os, 24 h)?
A: Its oedema % inhibition is 8.3%.

Q: And the oedema % inhibition ([4]; 25 mg/Kg per os, 48 h)?
A: Its oedema % inhibition is 0.0%.

Q: And the oedema % inhibition ([4]; 25 mg/Kg per os, 72 h)?
A: Its oedema % inhibition is 0.0%.

Q: What about the oedema % inhibition ([4]; 25 mg/Kg, Table IV (route not given), 2 h) of the same compound?
A: The oedema % inhibition was 30.1%.

Q: What about the oedema % inhibition ([4]; 25 mg/Kg, Table IV (route not given), 4 h) of the same compound?
A: Its oedema % inhibition is 27.9%.

Q: What about the oedema % inhibition ([4]; 25 mg/Kg, Table IV (route not given), 6 h) of the same compound?
A: The oedema % inhibition was 29.0%.

Q: What about the oedema % inhibition ([4]; 25 mg/Kg, Table IV (route not given), 24 h) of the same compound?
A: The oedema % inhibition was 13.0%.

Q: And the oedema % inhibition ([4]; 25 mg/Kg, Table IV (route not given), 48 h)?
A: The oedema % inhibition was 0.0%.

Q: And the oedema % inhibition ([4]; 25 mg/Kg, Table IV (route not given), 72 h)?
A: Its oedema % inhibition is 0.0%.

Q: What about the oedema % inhibition ([4]; 50 mg/Kg per os, 2 h) of the same compound?
A: The oedema % inhibition was 48.9%.

Q: What about the oedema % inhibition ([4]; 50 mg/Kg per os, 4 h) of the same compound?
A: Its oedema % inhibition is 49.0%.

Q: What about the oedema % inhibition ([4]; 50 mg/Kg per os, 6 h) of the same compound?
A: The oedema % inhibition was 47.1%.

Q: And the oedema % inhibition ([4]; 50 mg/Kg per os, 24 h)?
A: The oedema % inhibition was 9.9%.

Q: What about the oedema % inhibition ([4]; 50 mg/Kg per os, 48 h) of the same compound?
A: The oedema % inhibition was 0.0%.

Q: And the oedema % inhibition ([4]; 50 mg/Kg per os, 72 h)?
A: The oedema % inhibition was 0.0%.

Q: What about the oedema % inhibition ([4]; 50 mg/Kg, Table IV (route not given), 2 h) of the same compound?
A: The oedema % inhibition was 50.2%.

Q: And the oedema % inhibition ([4]; 50 mg/Kg, Table IV (route not given), 4 h)?
A: The oedema % inhibition was 51.0%.

Q: And the oedema % inhibition ([4]; 50 mg/Kg, Table IV (route not given), 6 h)?
A: The oedema % inhibition was 47.0%.

Q: And the oedema % inhibition ([4]; 50 mg/Kg, Table IV (route not given), 24 h)?
A: Its oedema % inhibition is 15.1%.

Q: What about the oedema % inhibition ([4]; 50 mg/Kg, Table IV (route not given), 48 h) of the same compound?
A: Its oedema % inhibition is 0.0%.

Q: What about the oedema % inhibition ([4]; 50 mg/Kg, Table IV (route not given), 72 h) of the same compound?
A: The oedema % inhibition was 0.0%.

Q: What about the oedema % inhibition ([4]; 100 mg/Kg per os, 2 h) of the same compound?
A: Its oedema % inhibition is 66.9%.

Q: And the oedema % inhibition ([4]; 100 mg/Kg per os, 4 h)?
A: Its oedema % inhibition is 67.1%.

Q: What about the oedema % inhibition ([4]; 100 mg/Kg per os, 6 h) of the same compound?
A: Its oedema % inhibition is 69.0%.

Q: What about the oedema % inhibition ([4]; 100 mg/Kg per os, 24 h) of the same compound?
A: The oedema % inhibition was 22.0%.

Q: What about the oedema % inhibition ([4]; 100 mg/Kg per os, 48 h) of the same compound?
A: The oedema % inhibition was 13.0%.

Q: What about the oedema % inhibition ([4]; 100 mg/Kg per os, 72 h) of the same compound?
A: The oedema % inhibition was 0.0%.

Q: What about the oedema % inhibition ([4]; 100 mg/Kg, Table IV (route not given), 2 h) of the same compound?
A: Its oedema % inhibition is 70.1%.

Q: And the oedema % inhibition ([4]; 100 mg/Kg, Table IV (route not given), 4 h)?
A: Its oedema % inhibition is 68.9%.

Q: And the oedema % inhibition ([4]; 100 mg/Kg, Table IV (route not given), 6 h)?
A: Its oedema % inhibition is 66.0%.

Q: What about the oedema % inhibition ([4]; 100 mg/Kg, Table IV (route not given), 24 h) of the same compound?
A: Its oedema % inhibition is 19.0%.

Q: And the oedema % inhibition ([4]; 100 mg/Kg, Table IV (route not given), 48 h)?
A: The oedema % inhibition was 10.0%.

Q: And the oedema % inhibition ([4]; 100 mg/Kg, Table IV (route not given), 72 h)?
A: Its oedema % inhibition is 0.0%.
